The source of these data is patent US11384078B2, “5,6-fused-bicyclic compounds and compositions for the treatment of parasitic diseases” (NOVARTIS AG, priority 2017, dated 2022).

What is called EC50 is the midpoint of the concentration-response curve.

Each structure is given as a SMILES string. Read-outs that look alike come from different tables or passages of the source.

For assay [1], the system named is Trypanosoma cruzi amastigotes cultured in 3T3 fibroblast cells. Kind of assay: Assay for growth inhibition of kinetoplastid parasite Trypanosoma cruzi (beta-galactosidase Tulahuen strain, CPRG readout). The assay is classed as cell-based. Particulars: read-out: Buckner infectious T. cruzi EC50. An excerpt: Assay for Growth Inhibition of Kinetoplastid Parasite Trypanosoma cruzi
Compounds of the invention can be assayed for inhibitor activity against Trypanosoma cruzi amastigotes cultured in 3T3 fibroblast cells. The assay is done using the mammalian stage (amastigotes) of T. cruzi that replicates in the intracellular space of host cells. The host cells are initially infected with the culture-derived trypomastigotes that rapidly invade and then divide as amastigotes. The protocol uses the Tulahuen strain of T. cruzi that has been engineered to express the E. coli beta-galactosidase gene (Lac-Z) (Antimicr. Agents Chemoth. 40:2592, 1996). This allows for a colorimetric readout by using the substrate CPRG and an absorbance plate reader.
3T3 fibroblast cells are re-suspended in RPMI-1640 medium without phenol red medium supplemented with 10% FBS (heat inactivated), 100 μg/ml penicillin, and 100 μg/ml streptomycin. Forty μL of suspension (1,000 cells) is dispensed into 384-well plates and incubated overnight at 37° C. temperature and in atmosphere containing 5% CO2. The following day, 100 nL of compounds of the invention in DMSO are added to plate wells containing 3T3 cells. At the same time control compounds (benznidazole and nifurtimox) and DMSO are added to plates to serve as the positive and negative controls, respectively. After that, 10 μL of media containing 10,000 T. cruzi trypomastigotes are added to each plate well and plates are placed back into incubators. After 6 day incubation, 10 μL of reagent solution (0.6 mM CPRG, 0.6% NP-40 in PBS) is added to plates and incubated at room temperature for 2 hours. Absorbance is then measured on SpectraMax GEMINI fluorimeter to determine relative number of T. cruzi cells present in each plate well.

Assay [2] has as its system Leishmania donovani axenic amastigote. Kind of assay: In vitro assay for growth inhibition of Leishmania donovani axenic amastigote (Cell TiterGlo luminescence). It is filed as cell-based. The conditions noted are these: read-out: L. donovani amastigotes EC50. How it is done: Abbreviations as used herein below have the corresponding meaning: • CPRG Chlorophenol Red-P-D-galactopyranoside • ATP adenosine triphosphate • BSA bovine serum albumin • DMSO dimethyl sulfoxide • FBS fetal bovine serum • PBS phosphate buffered saline • RPMI 1640 Rosweli Park Memorial Institute (RPMI) 1640 medium In Vitro Assay for Growth Inhibition of Leishmania donovani Axenic Amastiqote
Leishmania donovani axenic amastigote parasites are grown at 37° C., 5% CO2 in media made of RPMI 1640, 4 mM L-glutamine, 20% heat inactivated FBS, 100 units/ml of penicillin and 100 μg/ml of streptomycin, 23 μM folic acid, 100 μM adenosine, 22 mM D-glucose, 25 mM MES. The pH of media is adjusted to 5.5 at 37° C. using HCl. 20 μL of media is first dispensed into 384 well plates and 100 nL of the compounds of invention in DMSO are added to the plate wells. At the same time control compounds and DMSO are added to plates to serve as the positive and negative controls, respectively. 40 μL of parasite culture (9600 parasites) are then added to the plate wells. The plates are then placed into incubators. After two days incubation, 20 μL of Cell TiterGlo® (Promega) is added to the plate wells. The luminescence signal of each well is measured using the Envision reader (Perkin Elmer).
(In general: ATP-based viability assays read luminescence as a measure of living cells.)

Setting [3] is: Trypanosoma cruzi, Fibroblast, T. cruzi amastigotes in 3T3 fibroblast cells.
Where [4] appears, read: Leishmania donovani, L. donovani axenic amastigotes in vitro.
The mark [5] stands for this setting: Trypanosoma cruzi, Fibroblast, Table 4: compound of Formula (I) compared with compounds having a different core.
The mark [6] stands for this setting: Leishmania donovani, Table 4: compound of Formula (I) compared with compounds having a different core.

For the molecule `CC(C)c1cnc2nn(-c3cc(NC(=O)CC(C)(C)C)ccc3F)cc2c1` [Compound 217, N-{4-fluoro-3-[5-(propan-2-yl)-2H-pyrazolo[3,4-b]pyridin-2-yl]phenyl}-3,3-dimethylbutanamide], the EC50 in assay [1] (setting [3]) was found to be 4350 nM; in assay [2] (setting [4]), 14500 nM.

For the molecule `Cc1nc(C)c(C(=O)Nc2ccc(F)c(-n3cc4cc(CC(C)(C)C)cnc4n3)c2)o1` [Compound 102, N-{3-[5-(2,2-dimethylpropyl)-2H-pyrazolo[3,4-b]pyridin-2-yl]-4-fluorophenyl}-2,4-dimethyl-1,3-oxazole-5-carboxamide], the half-maximal effective concentration (EC50) in assay [1] (setting [3]) worked out at 46 nM; in assay [2] (setting [4]), 110 nM.

With `O=C(Nc1ccc(F)c(-n2cc3cc(C4CCCC4)cnc3n2)c1)N1CC(F)(F)C1` [Compound 30, N-(3-{5-cyclopentyl-2H-pyrazolo[3,4-b]pyridin-2-yl}-4-fluorophenyl)-3,3-difluoroazetidine-1-carboxamide], the EC50 in assay [2] (setting [4]) stood at 590 nM.

With `O=C(Nc1ccc(F)c(-n2cc3cc(N4CCC(F)(F)C4)cnc3n2)c1)N1CC(F)C1` [Compound 262, N-{3-[5-(3,3-difluoropyrrolidin-1-yl)-2H-pyrazolo[3,4-b]pyridin-2-yl]-4-fluorophenyl}-3-fluoroazetidine-1-carboxamide], the EC50 was found to be 4 nM in assay [1] (setting [3]) and 33 nM in assay [2] (setting [4]).

On to `CC(C)c1cnc2nn(-c3cc(NC(=O)N4CC(F)(F)C4)ccc3F)cc2c1` [Compound 124, 3,3-difluoro-N-{4-fluoro-3-[5-(propan-2-yl)-2H-pyrazolo[3,4-b]pyridin-2-yl]phenyl}azetidine-1-carboxamide], for which the EC50 in assay [1] (setting [3]) is 16 nM; in assay [2] (setting [4]), 18 nM.

With `Cc1nc(C)c(C(=O)Nc2ccc(F)c(-n3cc4cc(CC(C)C)cnc4n3)c2)o1` [Compound 16, N-{4-fluoro-3-[5-(2-methylpropyl)-2H-pyrazolo[3,4-b]pyridin-2-yl]phenyl}-2,4-dimethyl-1,3-oxazole-5-carboxamide], the values for the EC50 in assay [1] (setting [3]) and in assay [2] (setting [4]) were 12 nM and 89 nM, respectively.

In the case of `Cc1ccc(C(=O)Nc2ccc(F)c(-n3cc4cc(C(C)C)cnc4n3)c2)o1` [Compound 109, N-{4-fluoro-3-[5-(propan-2-yl)-2H-pyrazolo[3,4-b]pyridin-2-yl]phenyl}-5-methylfuran-2-carboxamide], the EC50 came to 15 nM in assay [1] (setting [3]) and 74 nM in assay [2] (setting [4]).

In the case of `Cc1nc(C)c(C(=O)Nc2ccc(F)c(-c3nc4ncc(C(C)(C)C)cn4n3)c2)o1` [reference compound], the figures for the EC50 in assay [1] (setting [5]) and in assay [2] (setting [6]) were 22 nM and 80 nM, respectively.

Regarding `O=C(Nc1ccc(F)c(-n2cc3cc(C4CCCC4)cnc3n2)c1)N1CC[C@@H](F)C1` [Compound 43, (3R)-N-(3-{5-cyclopentyl-2H-pyrazolo[3,4-b]pyridin-2-yl}-4-fluorophenyl)-3-fluoropyrrolidine-1-carboxamide], the values for the EC50 in assay [1] (setting [3]) and in assay [2] (setting [4]) were 5.2 nM and 4.7 nM, respectively.

For the molecule `Cc1nc(C)c(C(=O)Nc2ccc(F)c(-c3nc4ncc(C(C)C)cn4n3)c2)o1` [reference compound], the EC50 was determined as 45 nM in assay [1] (setting [5]) and 210 nM in assay [2] (setting [6]).

`CCC(C)c1cnc2nn(-c3cc(NC(=O)c4ccco4)ccc3F)cc2c1` (centres unmarked) [Compound 61, N-{3-[5-(butan-2-yl)-2H-pyrazolo[3,4-b]pyridin-2-yl]-4-fluorophenyl}furan-2-carboxamide]: the figures for the EC50 in assay [1] (setting [3]) and in assay [2] (setting [4]) were 52 nM and 240 nM, respectively.

In the case of `Cc1nc(C)c(C(=O)Nc2ccc(F)c(-n3cc4cc(C5CC5)cnc4n3)c2)o1` [Compound 17, N-(3-{5-cyclopropyl-2H-pyrazolo[3,4-b]pyridin-2-yl}-4-fluorophenyl)-2,4-dimethyl-1,3-oxazole-5-carboxamide], the EC50 was 16 nM in assay [1] (setting [3]) and 64 nM in assay [2] (setting [4]).

Turning to `CC(C)Cc1cnc2nn(-c3cc(NC(=O)c4ccco4)ccc3F)cc2c1` [Compound 54, N-{4-fluoro-3-[5-(2-methylpropyl)-2H-pyrazolo[3,4-b]pyridin-2-yl]phenyl}furan-2-carboxamide], the concentration giving a half-maximal response (EC50) was found to be 4.1 nM in assay [1] (setting [3]) and 28 nM in assay [2] (setting [4]).

`O=C(Nc1ccc(F)c(-n2cc3cc(N4CC5(C4)CC5(F)F)cnc3n2)c1)N1CC(F)C1` [Compound 261, N-[3-(5-{1,1-difluoro-5-azaspiro[2.3]hexan-5-yl}-2H-pyrazolo[3,4-b]pyridin-2-yl)-4-fluorophenyl}-3-fluoroazetidine-1-carboxamide]: the EC50 in assay [1] (setting [3]) is 2 nM; in assay [2] (setting [4]), 4 nM.

On to `Cc1nc(C)c(C(=O)Nc2ccc(F)c(-n3cc4cc(C(C)C)cnc4n3)c2)o1` [drawing 458], for which the EC50 stood at 15 nM in assay [1] (setting [5]) and 18 nM in assay [2] (setting [6]).

Turning to `O=C(Nc1ccc(F)c(-n2cc3cc(N4CCOCC4)cnc3n2)c1)c1ccco1` [Compound 122, N-{4-fluoro-3-[5-(morpholin-4-yl)-2H-pyrazolo[3,4-b]pyridin-2-yl]phenyl}furan-2-carboxamide], the EC50 was determined as 4.2 nM in assay [1] (setting [3]) and 15 nM in assay [2] (setting [4]).

In the case of `Cc1nc(C)c(C(=O)Nc2ccc(F)c(-n3cc4cc(N5CC(C(F)(F)F)C5)cnc4n3)c2)o1` [Compound 279], the EC50 in assay [1] (T. cruzi amastigotes in 3T3 fibroblast cells) came out at 3 nM; in assay [2] (L. donovani axenic amastigotes in vitro), 10 nM.

For `CC(C)Cc1cnc2nn(-c3cc(NC(=O)N4CC[C@@H](F)C4)ccc3F)cc2c1` [Compound 41, (3R)-3-fluoro-N-{4-fluoro-3-[5-(2-methylpropyl)-2H-pyrazolo[3,4-b]pyridin-2-yl]phenyl}pyrrolidine-1-carboxamide], the EC50 in assay [2] (setting [4]) was 20 nM.

In the case of `Cc1nc(C)c(C(=O)Nc2ccc(F)c(-c3cn4nc(C(C)(C)C)cnc4n3)c2)o1` [reference compound], the results for the EC50 in assay [1] (setting [5]) and in assay [2] (setting [6]) were 57 nM and 367 nM, respectively.

`O=C(Nc1ccc(F)c(-n2cc3cc(C4CCCCC4)cnc3n2)c1)c1ccco1` [Compound 57, N-(3-{5-cyclohexyl-2H-pyrazolo[3,4-b]pyridin-2-yl}-4-fluorophenyl)furan-2-carboxamide]: the EC50 came out at 360 nM in assay [1] (setting [3]) and 710 nM in assay [2] (setting [4]).

Turning to `Cc1nc(C)c(C(=O)Nc2ccc(F)c(-c3cn4cc(C(C)C)cnc4n3)c2)o1` [reference compound], the figures for the EC50 in assay [1] (setting [5]) and in assay [2] (setting [6]) were 48 nM and 180 nM, respectively.

`COc1ccc(C(=O)Nc2ccc(F)c(-n3cc4cc(C(C)C)cnc4n3)c2)o1` [Compound 110, N-{4-fluoro-3-[5-(propan-2-yl)-2H-pyrazolo[3,4-b]pyridin-2-yl]phenyl}-5-methoxyfuran-2-carboxamide]: the EC50 in assay [1] (setting [3]) came out at 150 nM; in assay [2] (setting [4]), 640 nM.

Take `O=C(Nc1ccc(F)c(-n2cc3cc(-c4ncccc4Cl)cnc3n2)c1)C1CC1` [Compound 333, N-{3-[5-(3-chloropyridin-2-yl)-2H-pyrazolo[3,4-b]pyridin-2-yl]-4-fluorophenyl}cyclopropanecarboxamide]: the EC50 turned out to be 16 nM in assay [1] (setting [3]) and 43 nM in assay [2] (setting [4]).

`CC(C)c1cnc2nn(-c3cc(NC(=O)CC(C)C(F)(F)F)ccc3F)cc2c1` (centres unmarked) [Compound 213, 4,4,4-trifluoro-N-{4-fluoro-3-[5-(propan-2-yl)-2H-pyrazolo[3,4-b]pyridin-2-yl]phenyl}-3-methylbutanamide]: the concentration for a half-maximal effect (EC50) is 363 nM in assay [1] (setting [3]) and 1560 nM in assay [2] (setting [4]).

With `O=C(Nc1ccc(F)c(-n2cc3cc(C4CCCC4)cnc3n2)c1)N1CC(F)C1` [Compound 18, N-(3-{5-cyclopentyl-2H-pyrazolo[3,4-b]pyridin-2-yl}-4-fluorophenyl)-3-fluoroazetidine-1-carboxamide], the EC50 in assay [1] (setting [3]) stood at 160 nM; in assay [2] (setting [4]), 290 nM.

Consider `CC(C)c1cnc2nn(-c3cc(NC(=O)C4CCC4)ccc3F)cc2c1` [Compound 210, N-{4-fluoro-3-[5-(propan-2-yl)-2H-pyrazolo[3,4-b]pyridin-2-yl]phenyl}cyclobutanecarboxamide], for which the 50% effective concentration (EC50) was determined as 79 nM in assay [1] (setting [3]) and 494 nM in assay [2] (setting [4]).
